Measured values: patent publication US4238472A, “Radioimmunoassay for chlorinated dibenzo-p-dioxins” (priority 1978, dated 1980)

What was measured:
Assay type in all cases: binding, rabbit
antiserum F-12 = assay: Specificity / cross reactivity of the radioimmunoassay, antiserum F-12; details: for Percentage Reactivity (inhibition of 125I binding relative to inhibition by 5 ng of 2,3,7,8-TCDD): "Cutscum"
Text: (§1) Since TCDD itself has no chemically reactive functional groups, a derivative was synthesized that retained most of the structural features of TCDD but with the addition of a reactive site. This derivative was coupled to an immunogenic protein carrier, such as bovine serum albumin, rabbit serum albumin, etc., so that animals would respond to it by producing an antiserum containing antibodies. A second compound was synthesized, still structurally similar to TCDD so that it would bind to the antibodies, but capable of being labeled with ^125 I for detectability at the picogram level. An amount of antiserum capable of binding about 20 pg of ^125 I-labeled dioxin derivative (hapten) is preincubated with the detergent emulsion of the sample extract (possibly containing TCDD). Then the mixture is incubated with the ^125 I-labeled derivative long enough for equilibrium binding to occur and form the hapten-antibody complex. A second antibody, namely, goat antibodies against rabbit gamma-globulin (i.e., goat anti-rabbit γ-globulin) are then added to precipitate the antibody ^125 I-labeled dioxin complex, and the amount of ^125 I in the precipitate is determined. The extent to which preincubation with the test material inhibits or decreases the amount of ^125 I precipitated relative to the amount precipitated in the absence of test material is a measure of the amount of chlorodibenzodioxin in the test sample.
(§2) Radioimmunoassay of small molecules requires some means of separating free hapten from antibody-bound hapten. The procedure used in the present invention, chosen because of its compatibility with detergent-solubilized hapten, involved precipitating the antibody-hapten complex with a second antibody, namely, goat antibodies against rabbit gamma-globulin. In this assay chlorodibenzodioxin from the environmental sample completes with the ^125 I-labeled hapten for binding to the antibody. Thus, the decrease in precipitation of radioactivity is a measure of the amount of (unlabeled) hapten in the test sample.
(§3) The assay buffer (hereinafter referred to as "PBS") contained, per liter, 20 mmol of potassium phosphate, 140 mmol of NaCl, and 200 mg of sodium azide. The pH was adjusted to 7.3 with NaOH. Antiserum was diluted with PBS also containing 0.1% bovine gamma globulin and 0.02% rabbit gamma globulin (w/v). Each assay tube from procedure G above received 0.2 ml of PBS, after which the tubes were held in the sonicator for 40 minutes and then cooled to room temperature. Appropriately diluted antiserum or, as control, antiserum diluant was added (0.2 ml) and, after vortex-mixing, the tubes were incubated for 40 minutes at 37°. 14000 disintegrations per minute (hereafter referred to as "DPM") or 7000 counts per minute (hereinafter referred to as "CPM", which equals DPM×counting efficiency) of [^125 I]-iodovaleramide derivative of trichlorodibenzo-p-dioxin in PBS containing 1% "Cutscum" were then added to each tube (approximately 10 μl), vortex mixed, and the tubes incubated for 1 hour at 37° followed by an additional 65 hours of incubation at 4°. Each tube next received 1.24 units of goat anti-rabbit gamma globulin in 0.2 ml of PBS containing 0.05 mM ethylenediamine tetracetic acid (hereinafter referred to as "EDTA"), was vortex mixed, and incubated for 5 hours at 4°. The tubes were centrifuged at 500×g for 20 minutes at 4°. The supernates were poured off and the tubes allowed to drain into Whatman #3 MM paper for 10 minutes. The precipitate or pellets obtained were then radioassayed for ^125 I, with 10 minute count cycles.
(§4) Standard curves were prepared using sequential two-fold dilutions of TCDD or other test compounds in benzene and evaporating the solvent as described above. Both control (blank) and TCDD-spiked tissues were extracted and processed as described above to determine general interference and recoveries. All samples were run in triplicate. […]

antiserum GC-5 = assay: Cross reactivity in chlorinated DBD radioimmunoassay, antiserum GC-5; details: for maximum inhibition of binding of 125I-labeled hapten: GC-5 diluted such that 33% of the label was bound in the absence of competitors
Text: as §1, §2, §3, §4

[1] = tested on: anti-chlorinated dibenzodioxin serum (antisera GC-5 and F-12); assay: Double-antibody radioimmunoassay, both antisera (general cross reactivity, interference and sensitivity); details: for cross reactivity of the three dichlorodibenzo-p-dioxins: 5 ng level; for activity v concentration curve slope: both antisera
Text: as §1, §2, §3, §4

SMILES | Cross Reactivity, Antiserum F-12: 100 × (inhibition of 125I binding by 4 pmole of test compound)/(inhibition by 4 pmole of 2,3,7,8-TCDD) (antiserum F-12) | Cross Reactivity, Antiserum GC-5: 100 × (inhibition of 125I binding by 4 pmole of test compound)/(inhibition by 4 pmole of 2,3,7,8-TCDD) (antiserum GC-5) | further results
CC(=O)Oc1c(C)c(C)c2c(c1C)CCC(C)(CCCC(C)CCCC(C)CCCC(C)C)O2 (stereo not drawn) [α-Tocopherol Acetate] | – | – | Percentage Reactivity (inhibition of 125I binding relative to inhibition by 5 ng of 2,3,7,8-TCDD) (antiserum F-12; highest amount tested 200 ng): 0%
Clc1c(Cl)c(Cl)c2c(oc3c(Cl)c(Cl)c(Cl)c(Cl)c32)c1Cl [Octachloro Dibenzofuran] | 8% | 14% | –
Oc1c(Cl)c(Cl)c(Cl)c(Cl)c1Cl [Pentachlorophenol] | – | – | Percentage Reactivity (inhibition of 125I binding relative to inhibition by 5 ng of 2,3,7,8-TCDD) (antiserum F-12; highest amount tested 10 μg): 0%
c1ccc2c(c1)Oc1ccccc1O2 [Unchlorinated Dibenzo-p-Dioxin, Unchlorinated dibenzo-p-dioxin] | < 1% | 4% | cross reactivity in words ([1]; either antiserum): very little cross relativity
Brc1cc2oc3cc(Br)c(Br)cc3c2cc1Br [2,3,7,8-Br4 Dibenzofuran] | 46% | – | –
CCCCC(CC)COC(=O)c1c(Cl)c(Cl)c(Cl)c(Cl)c1C(=O)OCC(CC)CCCC (stereo not shown) [Tetrachloro DEHP] | – | – | Percentage Reactivity (inhibition of 125I binding relative to inhibition by 5 ng of 2,3,7,8-TCDD) (antiserum F-12; highest amount tested 200 ng): 0.1%
c1ccc2c(c1)oc1ccccc12 [Unchlorinated Dibenzofuran] | < 1% | 2.5% | –
Clc1ccc2oc3ccc(Cl)cc3c2c1 [2,8-Cl2 Dibenzofuran] | – | 12% | –
c1ccc2cc3ccccc3cc2c1 [Anthracene] | – | – | Percentage Reactivity (inhibition of 125I binding relative to inhibition by 5 ng of 2,3,7,8-TCDD) (antiserum F-12; highest amount tested 100 ng): 0%
O=C(O)COc1cc(Cl)c(Cl)cc1Cl [2,4,5-T (Commercial), 2,4,5-trichlorophenoxyacetic acid] | – | – | Percentage Reactivity (inhibition of 125I binding relative to inhibition by 5 ng of 2,3,7,8-TCDD) (antiserum F-12; highest amount tested 10 μg): 37%
CCCCC(CC)COC(=O)c1ccccc1C(=O)OCC(CC)CCCC (stereo not shown) [DEHP, di(2-ethylhexyl) phthalate] | – | – | Percentage Reactivity (inhibition of 125I binding relative to inhibition by 5 ng of 2,3,7,8-TCDD) (antiserum F-12; highest amount tested 100 μg): 0%
ClC(Cl)=C(c1ccc(Cl)cc1)c1ccc(Cl)cc1 [DDE] | – | – | Percentage Reactivity (inhibition of 125I binding relative to inhibition by 5 ng of 2,3,7,8-TCDD) (antiserum F-12; highest amount tested 400 ng): 0%
Clc1ccc2c(c1)Oc1cc(Cl)ccc1O2 [2,8-Cl2 Dibenzo-p-Dioxin] | 17% | 52% | cross reactivity of the three dichlorodibenzo-p-dioxins [1]: very similar in their cross reactivity; activity v concentration curve slope [1]: most shallow slope
Clc1ccc2oc3cc(Cl)c(Cl)cc3c2c1 [2,3,8-Cl3 Dibenzofuran] | – | 2% | –
O=C1c2ccccc2-c2ccccc21 [9-Fluorenone] | – | – | Percentage Reactivity (inhibition of 125I binding relative to inhibition by 5 ng of 2,3,7,8-TCDD) (antiserum F-12; highest amount tested 100 ng): 0%
Clc1cccc(Cl)c1-c1c(Cl)cccc1Cl [2,6,2',6'-TCBP] | – | – | Percentage Reactivity (inhibition of 125I binding relative to inhibition by 5 ng of 2,3,7,8-TCDD) (antiserum F-12; highest amount tested 200 ng): 0%

SMILES | Cross Reactivity, Antiserum F-12: 100 × (inhibition of 125I binding by 4 pmole of test compound)/(inhibition by 4 pmole of 2,3,7,8-TCDD) (antiserum F-12) | Cross Reactivity, Antiserum GC-5: 100 × (inhibition of 125I binding by 4 pmole of test compound)/(inhibition by 4 pmole of 2,3,7,8-TCDD) (antiserum GC-5) | further results
CCCCCCCC/C=C\CCCCCCCC(=O)O[C@H]1CC[C@@]2(C)C(=CC[C@H]3[C@@H]4CC[C@H]([C@H](C)CCCC(C)C)[C@@]4(C)CC[C@@H]32)C1 [Cholesterol Oleate] | – | – | Percentage Reactivity (inhibition of 125I binding relative to inhibition by 5 ng of 2,3,7,8-TCDD) (antiserum F-12; highest amount tested 100 μg): 0%
Clc1cc2c(cc1Cl)Oc1c(Cl)c(Cl)c(Cl)c(Cl)c1O2 [1,2,3,4,7,8-Cl6 Dibenzo-p-Dioxin] | 9% | 99% | –
Clc1cc(Cl)c2oc3cc(Cl)c(Cl)cc3c2c1 [2,3,6,8-Cl4 Dibenzofuran] | 40% | 6% | –
Clc1ccc2c(c1)Oc1ccc(Cl)cc1O2 [2,7-Cl2 Dibenzo-p-Dioxin] | 20% | 56% | cross reactivity of the three dichlorodibenzo-p-dioxins [1]: very similar in their cross reactivity
O=C1OC2(c3cc(Cl)c(O)cc3Oc3cc(O)c(Cl)cc32)c2ccccc21 [2,7-Dichlorofluorescein] | – | – | Percentage Reactivity (inhibition of 125I binding relative to inhibition by 5 ng of 2,3,7,8-TCDD) (antiserum F-12; highest amount tested 200 ng): 0%
Clc1cc2c(cc1Cl)Oc1c(Cl)c(Cl)cc(Cl)c1O2 [1,2,4,7,8-Cl5 Dibenzo-p-Dioxin] | 36% | 76% | –
Clc1ccc(-c2ccc(Cl)c(Cl)c2)cc1Cl [3,4,3',4'-TCBP, 3,4,3'4'-tetrachlorobiphenyl] | – | – | Percentage Reactivity (inhibition of 125I binding relative to inhibition by 5 ng of 2,3,7,8-TCDD) (antiserum F-12; highest amount tested 5 ng): 6%
Clc1c(Cl)c(Cl)c2c(c1Cl)Oc1ccccc1O2 [1,2,3,4-Cl4 Dibenzo-p-Dioxin, 1,2,3,4-tetrachloro DBD] | < 1% | 20% | maximum inhibition of binding of 125I-labeled hapten (antiserum GC-5): up to 18%
Clc1cc(-c2cc(Cl)c(Cl)c(Cl)c2)cc(Cl)c1Cl [3,4,5,3',4',5'-HCBP] | – | – | Percentage Reactivity (inhibition of 125I binding relative to inhibition by 5 ng of 2,3,7,8-TCDD) (antiserum F-12; highest amount tested 100 ng): 0%
Clc1ccc2c(c1)Oc1cc(Cl)c(Cl)cc1O2 [2,3,7-Cl3 Dibenzo-p-Dioxin] | 77% | 73% | –
Clc1c(Cl)c(Cl)c2c(c1Cl)Oc1c(Cl)c(Cl)c(Cl)c(Cl)c1O2 [Octachloro Dibenzo-p-Dioxin] | 8% | 100% | –
Clc1cc(Cl)cc(-c2cc(Cl)cc(Cl)c2)c1 [3,5,3',5'-TCBP] | – | – | Percentage Reactivity (inhibition of 125I binding relative to inhibition by 5 ng of 2,3,7,8-TCDD) (antiserum F-12; highest amount tested 100 ng): 0%
Clc1cc2c(cc1Cl)Oc1ccccc1O2 [2,3-Cl2 Dibenzo-p-Dioxin, 2,3-dichloro DBD] | 16% | 44% | cross reactivity of the three dichlorodibenzo-p-dioxins [1]: very similar in their cross reactivity; activity v concentration curve slope [1]: steepest sloop; binding by the antibodies in GC-5 (antiserum GC-5): only a portion bind 2,3-dichloro DBD; maximum inhibition of binding of 125I-labeled hapten (antiserum GC-5): 55%
Clc1ccc(Oc2ccc(Cl)c(Cl)c2)cc1Cl [3,4,3',4'-TCBPE] | – | – | Percentage Reactivity (inhibition of 125I binding relative to inhibition by 5 ng of 2,3,7,8-TCDD) (antiserum F-12; highest amount tested 200 ng): 0.1%
Clc1cc(Cl)c(-c2cc(Cl)c(Cl)cc2Cl)cc1Cl [2,4,5,2',4',5'-HCBP] | – | – | Percentage Reactivity (inhibition of 125I binding relative to inhibition by 5 ng of 2,3,7,8-TCDD) (antiserum F-12; highest amount tested 100 ng): 0%
